# Assay results reported in the supplement of paper PMC4862054.
# Test system: DU-4475
# Assay: normalised response (% of control), CellTiter-Glo; higher = more viable cells (100 = DMSO, 0 = benzethonium chloride kill control)
# Conditions: incubation time: 72 h
# Summary of the method: (§1)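 Plates were normalised with 0.1 % DMSO as 100 and a positive kill control as 0. Breast cancer cell lines in 20 µl suspension had been seeded into 384-well plates with compound at 5 concentrations in 10-fold steps over a compound-specific 10,000-fold range, incubated 72 h, and read for CellTox Green fluorescence (485/520 nm) followed by CellTiter-Glo luminescence. Each value is the normalised signal at a single concentration.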
row,SMILES,normalised response
1,COC(=O)C[C@](O)(CCCC(C)(C)O)C(=O)O[C@@H]1C(OC)=C[C@]23CCCN2CCc2cc4c(cc2[C@H]13)OCO4 [Omacetaxine] (10 nM),75.5%
2,Cn1cnc2c(F)c(Nc3ccc(Br)cc3F)c(C(=O)NOCCO)cc21 [MEK-162] (1 nM),99.7%
3,Cn1c(=O)c(F)c(Nc2ccc(I)cc2F)c2c(=O)n(C[C@@H](O)CO)cnc21 [TAK-733] (1 nM),92.4%
4,C[C@@H]1C=C2C(=O)O[C@@H]3CC[C@H](C1)[C@]23O [Galiellalactone] (50 nM),105%
5,COC1=C2C[C@@H](C)C[C@H](OC)[C@H](O)[C@@H](C)/C=C(\C)[C@H](OC(N)=O)[C@@H](OC)/C=C\C=C(/C)C(=O)NC(=CC1=O)C2=O [Geldanamycin] (10 nM),105%
6,Cc1cc(C(C)Nc2ccccc2)c2nc(N3CCOCC3)cc(=O)n2c1 (stereo unspecified) [TGX-221] (1 nM),95.2%
7,CS(=O)(=O)CCNCc1ccc(-c2ccc3ncnc(Nc4ccc(OCc5cccc(F)c5)c(Cl)c4)c3c2)o1 [Lapatinib] (0.1 nM),109%
8,FC(F)c1nc2ccccc2n1-c1nc(N2CCOCC2)nc(N2CCOCC2)n1 [ZSTK474] (1 nM),96.6%

# Test system: MDA-MB-468
# Assay: as above
# Conditions: incubation time: 72 h
# Summary of the method: as §1
row,SMILES,normalised response
1,CS(=O)(=O)OCCCCOS(C)(=O)=O [Busulfan] (100 nM),106%
2,CN(c1ccccc1CNc1nc(Nc2ccc3c(c2)CC(=O)N3)ncc1C(F)(F)F)S(C)(=O)=O (1 nM),90.3%
3,CCS(=O)(=O)c1cccc(-c2cc(C(=O)NC3CCN(C)CC3)c(C)c3[nH]c4ncc(C)cc4c23)c1 [TAK-901] (1 nM),110%
4,CC(C)(C)c1cc(NC(=O)Nc2ccc(-c3cn4c(n3)sc3cc(OCCN5CCOCC5)ccc34)cc2)no1 [Quizartinib] (1 nM),104%
5,Cc1cc(C(C)Nc2ccccc2)c2nc(N3CCOCC3)cc(=O)n2c1 (stereo unspecified) [TGX-221] (10 nM),94.7%
6,C[C@@H]1CCN(C(=O)CC#N)C[C@@H]1N(C)c1ncnc2[nH]ccc12 [Tofacitinib] (0.5 nM),103%
7,COc1ncc(-c2ccc3nccc(-c4ccnnc4)c3c2)cc1NS(=O)(=O)c1ccc(F)cc1F (1 nM),109%
8,COC(=O)C[C@](O)(CCCC(C)(C)O)C(=O)O[C@@H]1C(OC)=C[C@]23CCCN2CCc2cc4c(cc2[C@H]13)OCO4 [Omacetaxine] (10 nM),101%
9,Cn1cnc2c(F)c(Nc3ccc(Br)cc3F)c(C(=O)NOCCO)cc21 [MEK-162] (1 nM),103%
10,Cn1c(=O)c(F)c(Nc2ccc(I)cc2F)c2c(=O)n(C[C@@H](O)CO)cnc21 [TAK-733] (1 nM),100%
11,C[C@@H]1C=C2C(=O)O[C@@H]3CC[C@H](C1)[C@]23O [Galiellalactone] (50 nM),106%
12,COC1=C2C[C@@H](C)C[C@H](OC)[C@H](O)[C@@H](C)/C=C(\C)[C@H](OC(N)=O)[C@@H](OC)/C=C\C=C(/C)C(=O)NC(=CC1=O)C2=O [Geldanamycin] (10 nM),105%
13,Cc1cc(C(C)Nc2ccccc2)c2nc(N3CCOCC3)cc(=O)n2c1 (stereo unspecified) [TGX-221] (1 nM),92.8%
14,CS(=O)(=O)CCNCc1ccc(-c2ccc3ncnc(Nc4ccc(OCc5cccc(F)c5)c(Cl)c4)c3c2)o1 [Lapatinib] (0.1 nM),112%
15,FC(F)c1nc2ccccc2n1-c1nc(N2CCOCC2)nc(N2CCOCC2)n1 [ZSTK474] (1 nM),100%

# Test system: Hs578T
# Assay: as above
# Conditions: incubation time: 72 h
# Summary of the method: as §1
row,SMILES,normalised response
1,CS(=O)(=O)OCCCCOS(C)(=O)=O [Busulfan] (100 nM),105%
2,CN(c1ccccc1CNc1nc(Nc2ccc3c(c2)CC(=O)N3)ncc1C(F)(F)F)S(C)(=O)=O (1 nM),97.8%
3,CCS(=O)(=O)c1cccc(-c2cc(C(=O)NC3CCN(C)CC3)c(C)c3[nH]c4ncc(C)cc4c23)c1 [TAK-901] (1 nM),103%
4,CC(C)(C)c1cc(NC(=O)Nc2ccc(-c3cn4c(n3)sc3cc(OCCN5CCOCC5)ccc34)cc2)no1 [Quizartinib] (1 nM),97.2%
5,Cc1cc(C(C)Nc2ccccc2)c2nc(N3CCOCC3)cc(=O)n2c1 (stereo unspecified) [TGX-221] (10 nM),97.6%
6,C[C@@H]1CCN(C(=O)CC#N)C[C@@H]1N(C)c1ncnc2[nH]ccc12 [Tofacitinib] (0.5 nM),100%
7,COc1ncc(-c2ccc3nccc(-c4ccnnc4)c3c2)cc1NS(=O)(=O)c1ccc(F)cc1F (1 nM),101%
8,COC(=O)C[C@](O)(CCCC(C)(C)O)C(=O)O[C@@H]1C(OC)=C[C@]23CCCN2CCc2cc4c(cc2[C@H]13)OCO4 [Omacetaxine] (10 nM),108%
9,Cn1cnc2c(F)c(Nc3ccc(Br)cc3F)c(C(=O)NOCCO)cc21 [MEK-162] (1 nM),95.4%
10,Cn1c(=O)c(F)c(Nc2ccc(I)cc2F)c2c(=O)n(C[C@@H](O)CO)cnc21 [TAK-733] (1 nM),98.6%
11,C[C@@H]1C=C2C(=O)O[C@@H]3CC[C@H](C1)[C@]23O [Galiellalactone] (50 nM),104%
12,COC1=C2C[C@@H](C)C[C@H](OC)[C@H](O)[C@@H](C)/C=C(\C)[C@H](OC(N)=O)[C@@H](OC)/C=C\C=C(/C)C(=O)NC(=CC1=O)C2=O [Geldanamycin] (10 nM),108%
13,Cc1cc(C(C)Nc2ccccc2)c2nc(N3CCOCC3)cc(=O)n2c1 (stereo unspecified) [TGX-221] (1 nM),98.4%
14,CS(=O)(=O)CCNCc1ccc(-c2ccc3ncnc(Nc4ccc(OCc5cccc(F)c5)c(Cl)c4)c3c2)o1 [Lapatinib] (0.1 nM),101%
15,FC(F)c1nc2ccccc2n1-c1nc(N2CCOCC2)nc(N2CCOCC2)n1 [ZSTK474] (1 nM),102%

# Test system: MDA-MB-436
# Assay: as above
# Conditions: incubation time: 72 h
# Summary of the method: as §1
row,SMILES,normalised response
1,CS(=O)(=O)OCCCCOS(C)(=O)=O [Busulfan] (100 nM),97.2%
2,CN(c1ccccc1CNc1nc(Nc2ccc3c(c2)CC(=O)N3)ncc1C(F)(F)F)S(C)(=O)=O (1 nM),106%
3,CCS(=O)(=O)c1cccc(-c2cc(C(=O)NC3CCN(C)CC3)c(C)c3[nH]c4ncc(C)cc4c23)c1 [TAK-901] (1 nM),95.5%
4,CC(C)(C)c1cc(NC(=O)Nc2ccc(-c3cn4c(n3)sc3cc(OCCN5CCOCC5)ccc34)cc2)no1 [Quizartinib] (1 nM),104%
5,Cc1cc(C(C)Nc2ccccc2)c2nc(N3CCOCC3)cc(=O)n2c1 (stereo unspecified) [TGX-221] (10 nM),98%
6,C[C@@H]1CCN(C(=O)CC#N)C[C@@H]1N(C)c1ncnc2[nH]ccc12 [Tofacitinib] (0.5 nM),102%
7,COc1ncc(-c2ccc3nccc(-c4ccnnc4)c3c2)cc1NS(=O)(=O)c1ccc(F)cc1F (1 nM),93.1%
8,COC(=O)C[C@](O)(CCCC(C)(C)O)C(=O)O[C@@H]1C(OC)=C[C@]23CCCN2CCc2cc4c(cc2[C@H]13)OCO4 [Omacetaxine] (10 nM),88.7%
9,Cn1cnc2c(F)c(Nc3ccc(Br)cc3F)c(C(=O)NOCCO)cc21 [MEK-162] (1 nM),101%
10,Cn1c(=O)c(F)c(Nc2ccc(I)cc2F)c2c(=O)n(C[C@@H](O)CO)cnc21 [TAK-733] (1 nM),98.8%
11,C[C@@H]1C=C2C(=O)O[C@@H]3CC[C@H](C1)[C@]23O [Galiellalactone] (50 nM),106%
12,COC1=C2C[C@@H](C)C[C@H](OC)[C@H](O)[C@@H](C)/C=C(\C)[C@H](OC(N)=O)[C@@H](OC)/C=C\C=C(/C)C(=O)NC(=CC1=O)C2=O [Geldanamycin] (10 nM),104%
13,Cc1cc(C(C)Nc2ccccc2)c2nc(N3CCOCC3)cc(=O)n2c1 (stereo unspecified) [TGX-221] (1 nM),84%
14,CS(=O)(=O)CCNCc1ccc(-c2ccc3ncnc(Nc4ccc(OCc5cccc(F)c5)c(Cl)c4)c3c2)o1 [Lapatinib] (0.1 nM),86.2%
15,FC(F)c1nc2ccccc2n1-c1nc(N2CCOCC2)nc(N2CCOCC2)n1 [ZSTK474] (1 nM),97.9%

# Test system: CAL-120
# Assay: as above
# Conditions: incubation time: 72 h
# Summary of the method: as §1
row,SMILES,normalised response
1,CS(=O)(=O)OCCCCOS(C)(=O)=O [Busulfan] (100 nM),99.1%
2,CN(c1ccccc1CNc1nc(Nc2ccc3c(c2)CC(=O)N3)ncc1C(F)(F)F)S(C)(=O)=O (1 nM),93%
3,CCS(=O)(=O)c1cccc(-c2cc(C(=O)NC3CCN(C)CC3)c(C)c3[nH]c4ncc(C)cc4c23)c1 [TAK-901] (1 nM),98.1%
4,CC(C)(C)c1cc(NC(=O)Nc2ccc(-c3cn4c(n3)sc3cc(OCCN5CCOCC5)ccc34)cc2)no1 [Quizartinib] (1 nM),111%
5,Cc1cc(C(C)Nc2ccccc2)c2nc(N3CCOCC3)cc(=O)n2c1 (stereo unspecified) [TGX-221] (10 nM),94.5%
6,C[C@@H]1CCN(C(=O)CC#N)C[C@@H]1N(C)c1ncnc2[nH]ccc12 [Tofacitinib] (0.5 nM),99%
7,COc1ncc(-c2ccc3nccc(-c4ccnnc4)c3c2)cc1NS(=O)(=O)c1ccc(F)cc1F (1 nM),93%
8,COC(=O)C[C@](O)(CCCC(C)(C)O)C(=O)O[C@@H]1C(OC)=C[C@]23CCCN2CCc2cc4c(cc2[C@H]13)OCO4 [Omacetaxine] (10 nM),103%
9,Cn1cnc2c(F)c(Nc3ccc(Br)cc3F)c(C(=O)NOCCO)cc21 [MEK-162] (1 nM),100%
10,Cn1c(=O)c(F)c(Nc2ccc(I)cc2F)c2c(=O)n(C[C@@H](O)CO)cnc21 [TAK-733] (1 nM),95%
11,C[C@@H]1C=C2C(=O)O[C@@H]3CC[C@H](C1)[C@]23O [Galiellalactone] (50 nM),102%
12,COC1=C2C[C@@H](C)C[C@H](OC)[C@H](O)[C@@H](C)/C=C(\C)[C@H](OC(N)=O)[C@@H](OC)/C=C\C=C(/C)C(=O)NC(=CC1=O)C2=O [Geldanamycin] (10 nM),102%
13,Cc1cc(C(C)Nc2ccccc2)c2nc(N3CCOCC3)cc(=O)n2c1 (stereo unspecified) [TGX-221] (1 nM),95.8%
14,CS(=O)(=O)CCNCc1ccc(-c2ccc3ncnc(Nc4ccc(OCc5cccc(F)c5)c(Cl)c4)c3c2)o1 [Lapatinib] (0.1 nM),96%
15,FC(F)c1nc2ccccc2n1-c1nc(N2CCOCC2)nc(N2CCOCC2)n1 [ZSTK474] (1 nM),97.7%

# Test system: HDQ-P1
# Assay: as above
# Conditions: incubation time: 72 h
# Summary of the method: as §1
row,SMILES,normalised response
1,CS(=O)(=O)OCCCCOS(C)(=O)=O [Busulfan] (100 nM),99.7%
2,CN(c1ccccc1CNc1nc(Nc2ccc3c(c2)CC(=O)N3)ncc1C(F)(F)F)S(C)(=O)=O (1 nM),101%
3,CCS(=O)(=O)c1cccc(-c2cc(C(=O)NC3CCN(C)CC3)c(C)c3[nH]c4ncc(C)cc4c23)c1 [TAK-901] (1 nM),96%
